Results reported in PubChem BioAssay (NCI).
Where “and” joins values, the source holds several entries; their conditions need not be identical. Identical values can stand only once.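 Values below derive from 48-hour exposures of cells grown in 96-well plates, with endpoints linearly interpolated between the two concentrations bracketing the appropriate inhibition level. Abbreviation: GI50, concentration required for 50% inhibition of growth. The concentration for full growth arrest is given as TGI.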

Experiments:
Assay in all cases: DTP human tumour cell line panel, 48 h
MDA-MB-231 breast = test system: MDA-MB-231 breast
MDA-MB-435 = test system: MDA-MB-435
HT29 colon = test system: HT29 colon
786-0 renal = test system: 786-0 renal
OVCAR-8 ovarian = test system: OVCAR-8 ovarian
A549 NSCLC = test system: A549 NSCLC
OVCAR-4 ovarian = test system: OVCAR-4 ovarian
IGROV1 ovarian = test system: IGROV1 ovarian

Row | SMILES | GI50 (MDA-MB-231 breast) | TGI (MDA-MB-231 breast) | GI50 (MDA-MB-435) | TGI (MDA-MB-435) | GI50 (HT29 colon) | TGI (HT29 colon) | GI50 (786-0 renal) | TGI (786-0 renal) | GI50 (OVCAR-8 ovarian) | TGI (OVCAR-8 ovarian) | GI50 (A549 NSCLC) | TGI (A549 NSCLC) | GI50 (OVCAR-4 ovarian) | TGI (OVCAR-4 ovarian) | GI50 (IGROV1 ovarian) | TGI (IGROV1 ovarian)
1 | O=C(Nc1ccc([N+](=O)[O-])cc1Cl)c1cc(Cl)ccc1O | 0.11 µM and 0.162 µM | 0.461 µM and 0.593 µM | 0.115 µM and 0.244 µM | 0.381 µM and 1.33 µM | 1.26 µM and 2.16 µM | 3.68 µM and > 28.8 µM | 0.142 µM and 0.268 µM | 0.488 µM and 0.825 µM | 0.147 µM and 0.33 µM | 0.605 µM | 0.163 µM and 0.327 µM | 23.4 µM and > 100 µM | 0.156 µM and 0.259 µM | 13.4 µM and > 100 µM | 0.229 µM and 0.294 µM | 18.7 µM and 8.49 µM
2 | O=C(COc1ccc(Cl)cc1Cl)NNc1ccc([N+](=O)[O-])cc1 | 30.8 µM | > 100 µM | > 100 µM | > 100 µM | > 100 µM | > 100 µM | 25.6 µM | 61.2 µM | 98.9 µM | > 100 µM | > 100 µM | > 100 µM | > 100 µM | > 100 µM | 36 µM | > 100 µM
3 | Nc1nc(N)c2c(n1)NC(c1ccc(Cl)cc1)C1CCc3ccccc3C1=N2 (centres undefined) | 9.73 µM | 21.8 µM | 4.72 µM | 19.6 µM | 4.31 µM | 18 µM | 11.8 µM | 24.1 µM | 10.8 µM | 43.1 µM | 11.8 µM | 25 µM | 6.45 µM | 21 µM | 6.16 µM | 20.4 µM
4 | Nc1ncnc2c1ncn2Cc1ccc(CCl)cc1 | 17.5 µM | 35.8 µM | 15.4 µM | 32.9 µM |  |  | 27.5 µM | 73.6 µM | 15.5 µM | 31.5 µM | 17.1 µM | 35.1 µM | 19.4 µM | 38.3 µM | 25.8 µM | 66.5 µM
5 | c1ccc2c(c1)CCCc1nnc3nc4ccccc4n3c1-2 | 4.98 µM | > 100 µM | 7.32 µM | > 100 µM | 10.1 µM | 82.5 µM | 5.12 µM | > 100 µM | 5.02 µM | 74.1 µM | 3.66 µM | > 100 µM | 3.98 µM | > 100 µM | 2.88 µM | > 100 µM
6 | COc1ccc2c(c1)C(=O)CC(C(N)=O)C2 (centres undefined) |  | > 100 µM |  | > 100 µM |  | > 100 µM |  | > 100 µM |  | > 100 µM |  | > 100 µM |  | > 100 µM |  | > 100 µM
7 | CCCCCCCN(CCCCCCC)C(=N)c1ccc(OC)c2ccccc12 |  |  | 1.48 µM | 2.89 µM |  |  | 1.31 µM | 2.95 µM | 1.41 µM | 3.04 µM | 1.37 µM | 2.82 µM | 1.36 µM | 3.02 µM | 1.1 µM | 2.7 µM
8 | C/C=C1/CN2CCC34c5ccccc5N5C(=O)C(C6CC78c9ccccc9N9C(=O)C=CC(C%10CC7N6C/C%10=C/C)C98)=CC(C1CC23)C54 (centres undefined) | 13.4 µM | 8.36 µM and 29 µM | 7.47 µM | 21.4 µM and 21.7 µM |  | 9.87 µM and 5.4 µM | 5.51 µM | 11.3 µM and 20.1 µM | 2.78 µM | 8.57 µM and 10.8 µM | 14.1 µM | 18.9 µM and 32.3 µM |  | 32.9 µM and 22.4 µM |  | 18.3 µM
9 | Nc1[nH]c(=S)[nH]c(=O)c1N=Nc1c(Br)cc(S(N)(=O)=O)cc1Br |  | > 100 µM |  | > 100 µM |  | > 100 µM |  | > 100 µM |  | > 100 µM |  | > 100 µM |  | > 100 µM |  | > 100 µM
10 | Cn1cc(-c2[nH]c3cc(NC(=O)[C@H](N)C4CCCCC4)cc4c3c2C=NNC4=O)cn1 | 0.866 µM and 0.562 µM | 12.4 µM and > 10 µM | 0.245 µM and 0.286 µM | 1.23 µM and 1.28 µM | 1.44 µM and 0.994 µM | 8.24 µM and > 10 µM | 0.256 µM and 0.315 µM |  | 0.264 µM and 0.351 µM | 4.08 µM and > 10 µM | 3.63 µM and 3.85 µM | 16.9 µM and > 10 µM | 0.184 µM and 0.217 µM | 10.5 µM and > 10 µM | 0.603 µM and 0.367 µM | 14.3 µM and > 10 µM
11 | CNC(=O)c1cc(Oc2ccc(NC(=O)Nc3ccc(Cl)c(C(F)(F)F)c3)cc2)ccn1 | 1.74 µM and 1.62 µM and 1.33 µM | 4.4 µM and 4.42 µM and 4.14 µM | 1.96 µM and 1.82 µM and 1.84 µM | 5.74 µM and 4.33 µM and 4.92 µM | 2.54 µM and 2.45 µM and 2.36 µM | > 10 µM and 8.39 µM and 9.02 µM | 4.04 µM and 3 µM and 3.42 µM | > 10 µM and 9.4 µM and 13.2 µM | 3 µM and 2.91 µM and 3.03 µM | > 10 µM and 9.06 µM and 20.2 µM | 3.03 µM and 2.57 µM and 2.92 µM | > 10 µM and 11.5 µM and 13.6 µM | 3.07 µM and 3.67 µM and 3.42 µM | > 10 µM and 11.5 µM and 22.2 µM | 3.52 µM and 3.44 µM and 2.6 µM | > 10 µM and 15.3 µM and 9.14 µM
12 | CC1NCCC(CC(=O)O)C1CC(=O)O (centres undefined) |  | > 100 µM |  | > 100 µM |  | > 100 µM |  | > 100 µM |  | > 100 µM |  | > 100 µM |  | > 100 µM |  | > 100 µM
13 | O=C(Nc1ccc(-c2cn3ccccc3n2)cc1)c1cc(Br)ccc1O |  | > 100 µM |  | > 100 µM |  | > 100 µM |  | > 100 µM |  | > 100 µM |  | > 100 µM |  | > 100 µM |  | > 100 µM
14 | COc1ccc(C2CC(=O)Nc3c2c(C)nn3-c2nc3ccccc3[nH]2)cc1OC (centres undefined) | 4.39 µM | 21 µM | 3.25 µM | 18.3 µM | 5.66 µM | 40 µM | 5.2 µM | 24.8 µM | 4.09 µM | 43.6 µM | 3.82 µM | 17.8 µM | 6.42 µM | > 100 µM | 4.67 µM | > 93.3 µM
15 | CS(=O)(=O)Nc1cc(-c2ccc3ncnc(Nc4ccc(OCc5ccccn5)c(Cl)c4)c3c2)cnc1Cl | 0.313 µM | 2.03 µM | 0.376 µM | 2.78 µM | 0.456 µM | 38.5 µM | 0.804 µM | > 100 µM | 1.36 µM | 26.8 µM | 1.09 µM | 5.48 µM | 1.49 µM | > 100 µM | 0.0748 µM | 0.409 µM
16 | O=C1NC(=O)/C(=C/c2ccc3nccc(-c4ccncc4)c3c2)S1 | 0.387 µM | 3.92 µM | 0.402 µM | > 7.25 µM | 0.423 µM | 6.29 µM | 0.345 µM | 3.15 µM | 0.517 µM | > 10 µM | 0.61 µM | 5.24 µM | 0.503 µM | 5.89 µM | 0.117 µM | 0.612 µM
